Source: publication PMC11125453, “A Novel 2-Methoxyestradiol Derivative: Disrupting Mitosis Inhibiting Cell Motility and Inducing Apoptosis in HeLa Cells In Vitro” (Pharmaceutics, 2024)

Experiments:
[1] = molecular target: T1, ERα (Homo sapiens, UniProt P03372); test: Estrogenic activity luciferase reporter assay in T47D-ERE-Luc^Neo; assay type: cell-based; conditions: 24 h incubation, read-out: EC50, oestrogenic activity (transcriptional activity of oestrogen-responsive luciferase reporter)
T1 construct: T47D-ERE-Luc^Neo, an ERα-positive cell line, stably transfected with a luciferase reporter cassette; endogenous in cells; host or cells: T47D-ERE-Luc^Neo
T1 sequence (P03372 1-595): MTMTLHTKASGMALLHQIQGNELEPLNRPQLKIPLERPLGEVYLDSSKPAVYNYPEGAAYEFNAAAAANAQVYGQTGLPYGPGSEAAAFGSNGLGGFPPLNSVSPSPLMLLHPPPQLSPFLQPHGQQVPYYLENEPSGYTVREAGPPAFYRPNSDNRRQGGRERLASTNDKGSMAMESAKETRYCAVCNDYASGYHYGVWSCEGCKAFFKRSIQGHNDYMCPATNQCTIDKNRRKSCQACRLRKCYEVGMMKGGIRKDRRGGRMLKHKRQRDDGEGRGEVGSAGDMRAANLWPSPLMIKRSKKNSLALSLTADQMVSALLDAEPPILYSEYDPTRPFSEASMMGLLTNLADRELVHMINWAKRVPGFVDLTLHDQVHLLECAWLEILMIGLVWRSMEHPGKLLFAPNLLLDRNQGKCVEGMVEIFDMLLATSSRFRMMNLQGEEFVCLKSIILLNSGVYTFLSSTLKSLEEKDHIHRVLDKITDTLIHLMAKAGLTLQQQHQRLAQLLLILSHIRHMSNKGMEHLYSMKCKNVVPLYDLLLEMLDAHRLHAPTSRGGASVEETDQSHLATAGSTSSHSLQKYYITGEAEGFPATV
Method: The in vitro oestrogenic activity of our test compound was determined by utilizing the T47D-ERE-Luc^Neo, an ERα-positive cell line, stably transfected with a luciferase reporter cassette. On the first day of the experiment, cells were seeded onto 96-well microplates in a density of 50,000 cells/well. After 72 h of incubation, the medium was changed to phenol red-free RPMI, containing 10% charcoal-stripped FBS. This step was repeated for another four consecutive days to deplete the intracellular oestrogen content. […]. After 24 h of incubation, the supernatant was removed from the wells and the One-Glo™ firefly luciferase reagent was added according to the manufacturer’s instructions (Promega Corp., Madison, WI, USA). Following a 5 min incubation period, the luciferase enzyme activity was measured using a luminometer (FLUOstar OPTIMA, BMG Labtech GmbH, Ortenberg, Germany). Each concentration was assayed in triplicates, repeated twice. Relative luminescence units (RLU) were normalised to percentage values, and sigmoidal concentration–response curves were fitted to the data points using GraphPad Prism 9.5.1 (GraphPad Software, San Diego, CA, USA).

[2] = system: HeLa cells; test: Boyden chamber invasion assay; assay type: cell-based, human; conditions: 5.0 µM, 24 h
Method: Compound 4a’s capacity to inhibit tumour invasion was assessed using the Boyden chamber assay, a three-dimensional model, on a profoundly invasive HPV-18 positive cell line. The polyethylene terephthalate (PET) membrane (8 μm pore size) and the thin layer of the matrigel basement matrix in special Boyden chamber inserts (BioCoat™ Matrigel® Invasion Chambers, Corning Inc., Corning, NY, USA) were prehydrated (2 h, serum-free EMEM) and placed onto a 24-well plate. The cell suspension (50,000 cells/insert in 500 μL) prepared in the serum-free EMEM with sub-antiproliferative concentrations (1.0, 2.5, and 5.0 μM) of 4a was nested in the upper compartments. Untreated cells were used as controls, with the EMEM medium supplemented with 10% FBS, and served as a chemoattractant in the lower chambers. After 24 h of incubation, supernatants and non-invading cells were removed cautiously with a cotton swab. […] Subsequently, 4 images per chamber were taken with a Nikon Eclipse TS100 fluorescence microscope (Nikon Instruments Europe, Amstelveen, The Netherlands), and the number of invading cells were enumerated using ImageJ software (National Institutes of Health, Bethesda, MD, USA). The invasion rate was determined by comparing the number of invaded cells in the treated samples with the number of invaded cells in the untreated control samples.

[3] = system: NIH/3T3 cells; set-up: method as in PMID 35091086; conditions: read-out: IC50 on non-cancerous mouse fibroblast (NIH/3T3) cells; cited from earlier work
[4] = system: HeLa cells; test: Hoechst 33258-propidium iodide fluorescent double staining; assay type: cell-based, human; conditions: 1.0, 2.5, 5.0 and 10 μM, 48 h
Method: Fluorescence staining was conducted to observe the morphological changes induced by the apoptotic process in cells treated with the compound 4a. HeLa cell suspension was seeded into 6-well plates at a density of 150,000 cells per well and allowed to repose for 24 h before exposure to different concentrations of our test substance (1.0, 2.5, 5.0, and 10 μM) for 48 h. To distinguish apoptotic and necrotic cell populations, the cells were stained with lipophilic Hoechst 33258 (1 μg/mL, HO) and hydrophilic propidium iodide (3 μg/mL, PI) for 90 min at 37 °C in a CO2 incubator. Following the removal of the remaining dye-containing medium, a Nikon Eclipse TS100 fluorescence microscope (Nikon Instruments Europe, Amstelveen, The Netherlands) was used to capture at least 4 images per condition. The microscope was equipped with suitable optical blocks for Hoechst 33258 (excitation: 360/40 nm bandpass filter, emission: 460/50 nm bandpass filter, and 400 nm dichromatic mirror) and propidium iodide (excitation: 500/20 nm bandpass filter, emission: 520 nm long pass filter, and 515 nm dichromatic mirror). This technique enables differentiation between early apoptosis and secondary necrosis by examining the nuclear morphology and membrane integrity of cells. The HO dye solution readily permeates into the nuclei of all cells, resulting in a uniform blue staining in the nuclei of the viable cells. […]

[5] = system: MCF7 cells; test: MTT assay, growth inhibition of MCF7, 72 h; assay type: cell-based; conditions: Homo sapiens, 72 h incubation
[6] = system: HeLa cells; test: MTT assay for cell viability, 24 h; assay type: cell-based, human; conditions: concentrations corresponding the IC50 of 4a
Method: (§1) The extent of the inhibition of cell proliferation by the test compound was determined using the MTT (3-(4,5-dimethylthiazol-2-yl)-2,5-diphenyltetrazolium bromide) assay. Exponentially growing HeLa cells were seeded into 96-well plates at a density of 1.0 × 10^4 cells per well in 100 µL of media and incubated for 24 h to facilitate cell attachment. Subsequently, the cells were treated with test compounds formulated in 100 µL of media at six different concentrations of compounds ranging, from 0.1 to 30 µmol. The control group received only media treatment. After 24 h of incubation, 22 µL of MTT solution (5 mg/mL in PBS; Duchefa Biochemie BV, Haarlem, The Netherlands) was added and incubated for 4 h at 37 °C in a humidified 5% CO2 environment. The medium was subsequently aspirated, and 100 µL of DMSO was added to dissolve the formazan crystals produced by the intact cell’s mitochondrial enzymes. The mixture was then mechanically shaken for 30 min. Absorbance measurements were taken at 545 nm using a microplate UV-VIS reader (SPECTRO star Nano, BMG Labtech GmbH, Offenburg, Germany), followed by the calculation of the percentage cell viability using the GraphPad Prism 5.01 (GraphPad Software, San Diego, CA, USA). All in vitro experiments were performed twice with five replicates. Stock solutions of the tested substances (10 mM) were prepared in DMSO.

[7] = system: NIH/3T3 cells; test: Growth inhibition on non-cancerous mouse fibroblast cells, previous study; assay type: cell-based; conditions: ratio of IC50 values of NIH/3T3 and HeLa
[8] = system: HeLa cells; test: Wound-healing assay; assay type: cell-based, human; conditions: 5.0 µM
Method: Due to the significant contribution of cell motility to tumour metastasis, we performed a wound-healing assay, utilizing a 2D model, to explore the antimigratory potential of compound 4a on HeLa cells. Special silicon inserts (Ibidi GmbH, Gräfelfing, Germany) were utilised, with 50,000 cells per well implanted on 12-well plates in a standard EMEM medium supplemented with 10% FBS. Following overnight incubation, the inserts were carefully removed, and the confluent monolayers were washed with PBS. Cells were then treated with sub-antiproliferative concentrations (1.0, 2.5 and 5.0 µM) of compound 4a in the EMEM medium containing 2% FBS. Images were then captured at 0, 24, and 48 h post-treatment using a Nikon Eclipse TS100 fluorescence microscope (Nikon Instruments Europe, Amstelveen, The Netherlands). Untreated cells served as the control, and the rate of wound closure (the decrease in size of the gaps devoid of cells) was measured using ImageJ software v1.54 (National Institutes of Health, Bethesda, MD, USA).

[9] = system: tubulin; test: Cell-free tubulin polymerisation assay; assay type: biochemical
Method: To assess the impact of test compound 4a on the microtubular system, a cell-free tubulin polymerisation assay was conducted using a commercially available kit (Cytoskeleton Inc., Denver, CO, USA), largely in accordance with manufacturer’s instructions, though with some modifications. The assay was performed in a pre-heated 96-well plate, with each condition tested in two parallel wells. Two wells were assigned as the experimental control and received 10 µL of general tubulin buffer (GTB), while the next two wells were assigned as the positive control and received a similar volume of 10 µM paclitaxel. Various concentrations of the test compound (50, 150, 300, and 600 µM) were added in similar volumes, and the polymerisation reaction was initiated by adding 100 µL of tubulin to each well. Absorbance readings were measured every minute for 60 min at 340 nm, following a kinetic measurement protocol. A similar experiment was repeated with the absence of glycerol in the reaction mixture and in exclusion of 50, 150 µM of our test compound. […] The maximum rate of tubulin polymerisation (Vmax) was determined as the highest difference between a set of three absorbance values at any two consecutive intervals.

[10] = system: T47D cells; test: MTT assay, growth inhibition of T47D, 72 h; assay type: cell-based; conditions: Homo sapiens, 72 h incubation
Method: as §1, with “The medium was subsequently aspirated, and 100 µL of DMSO was added to dissolve the formazan crystals produced by the intact cell’s mitochondrial enzymes. The mixture was then mechanically shaken for 30 min.” left out, “All in vitro experiments were performed twice with five replicates. Stock solutions of the tested substances (10 mM) were prepared in DMSO.” left out
The MTT assay was conducted as described in Section 2.5, with the incubation time extended to 72 h. IC50 values were determined by fitting sigmoidal concentration–response curves using GraphPad Prism 9.5.1 (GraphPad Software, San Diego, CA, USA). […]

[11] = system: HeLa cells; test: Cell cycle analysis using flow cytometry; assay type: cell-based, human; conditions: 18 h incubation; 1.25, 2.5, 5.0 and 10 µM
Method: Cell cycle analysis was performed to elucidate a possible mechanism of action of the compound 4a. Cells were seeded in a 12-well plate at a density of 120,000 cells per well and incubated overnight. […] The supernatant from each treatment was collected separately, and the cells were washed with PBS and detached using trypsin. The resulting supernatant containing the cells was centrifuged at 1300 rpm for 5 min. The cells were then washed with PBS and fixed with 70% ice-cold ethanol at −20 °C for 20 min. To stain the DNA content, the cells were treated with 300 µL of staining solution, which consisted of 10 µg/mL PI, 0.1% sodium citrate, 0.1% triton-X, and 10 µg/mL RNase-A, all dissolved in injectable water. The staining process was carried out in the dark for 30 min. The cells were subjected to analysis using a flow cytometer (CytoFLEX-V0-B4-RO, Beckman Coulter, Brea, CA, USA) with a minimum of 10,000 events per sample being evaluated during each analysis. The data obtained were processed using ModFit LT 3.3.11 software (Verity Software House, Topsham, ME, USA). Untreated cells were utilised as the control group. Apoptotic cells were identified as the hypodiploid (subG1) cell population. The cell cycle analysis experiments were conducted twice, with three parallel samples for each condition.

[12] = system: HeLa cells; set-up: method as in PMID 35091086; conditions: HeLa cell line; cited from earlier work

Row | SMILES | EC50 [1] [µM] | decrease in number of invading cells (anti-invasive activity) vs control [2] | IC50 [3] [µM] | nuclei emitting intense blue fluorescence (DNA condensation, early apoptosis) [4] | IC50 [5] [µM] | cell viability change after 24 h incubation [6] | selectivity index (SI) [7] | reduction in the migratory capacity of HeLa cells relative to the control ([8]; 24 h of treatment) [%] | reduction in the migratory capacity of HeLa cells relative to the control ([8]; 48 h of treatment) [%] | concentration of maximum tubulin polymerisation effect ([9]; absence of glycerol) | effect on tubulin polymerisation relative to the control ([9]; all tested concentrations (50, 150, 300, 600 µM), presence or absence of glycerol) | IC50 [10] [µM] | effect on G2/M phase population [11] | effect on hypodiploid sub-G1 population [11] | IC50 [12] [µM]
1 | COc1cc2c(cc1O)CC[C@@H]1[C@@H]2CC[C@]2(C)[C@@H](O)CC[C@@H]12 [Compound 2ME, 2-methoxyestradiol] | 0.0111 | – | – | – | – | – | – | – | – | – | – | – | – | – | –
2 | CN(C)Cc1cc2c(cc1O)CC[C@@H]1[C@@H]2CC[C@]2(C)[C@@H](O)CC[C@@H]12 [Compound 4a, 2-[(dimethylamino)methyl]-oestradiol] | 0.653 | more than 95% | 70.4 | concentration-dependent escalation | 19.2 | no significant alteration in cell viability | 15.6 | 53.9 | 39.6 | approximately 300 µM | significant increase in tubulin polymerisation | 16.9 | significant cell arrest at the G2/M phase | significant rise in the hypodiploid sub-G1 population | 4.53
